Test results published in article PMC6547740, “Potent and specific MTH1 inhibitors targeting gastric cancer” (Cell Death & Disease, 2019).

Tests used:
OGG1 = target: T1, OGG1 (Homo sapiens, UniProt O15527); experiment: Cellular thermal shift assay (CETSA), OGG1; type: binding; settings: MGC-803 cells, 50 µM compound, heated 10 min from 43 to 61 °C
T1 construct: endogenous in cells; host or cells: MGC-803 (human gastric cancer cell line)
Protocol: (§1) Cellular thermal shift assay (CETSA), also known as the target engagement assay was one-way to detect the intracellular interaction ability of compounds with its specific target. Firstly, cells were seeded into T75 culture flasks and cultured overnight. Then, the cells were treated with cell media containing 1‰ DMSO as blank control and candidate compounds for 3–5 h. Next, the cells were collected by centrifugation and resuspended by PBS, then the cells were aliquoted into 7 PCR tubes and heated using PCR instrument for 10 min from 43 to 61 °C. After that, cells were lysed using liquid nitrogen and three repeated cycles of freeze-thawing. Then, samples were centrifuged at 12,000 × g for 20 min at 4 °C. Supernatants were denatured at 100 °C for 10 min and kept at −20 °C until Western Blot analysis.

GES-1 cells [1] = experiment: Colony formation assay, GES-1; type: cell-based, human; settings: GES-1 gastric normal cells, 7 days treatment
Protocol: (§2) The day before treatment, cells were seeded into six-well plates at a concentration of 1 × 10^3 cells per well, and then the media were replaced with fresh media containing serial concentrations of candidate compounds. After 7 days of treatment, the cells were fixed with 75% ethanol, stained with 0.1% crystal violet solution and captured by the microscopy (Leica). After that, the crystal violet crystals were dissolved by adding methanol. The absorbance at 595 nm was measured by a BioTek micro plate reader. In the end, the data were analyzed using the GraphPad Prism 5 software.

MGC-803 cells [2] = experiment: Colony formation assay, MGC-803; type: cell-based, human; settings: MGC-803, 7 days treatment, compared with DMSO or MI-929
Protocol: as §2

EC9706 cells = experiment: MTT cell viability, EC9706; type: cell-based; settings: Homo sapiens, esophageal cancer cell line, 72 h
Protocol: (§3) The cell viability was determined by 3-(4,5-dimethylthiazol-2-yl)-2,5-diphenyltetrazolium bromide (MTT) assay, according to the manufacturer’s instructions. 1 day before treatment, cells were seeded into 96-well plates at a concentration of 2–5 × 10^3 cells per well, followed by treatment with fresh medium containing serial dilutions of candidate compounds for 48 or 72 h, 20 μL of MTT solution (5 mg/mL in PBS) was then added to each well. After treatment, the plates were incubated at 37 °C for another 4 h. Subsequently, the MTT solution was removed and 150 μL of DMSO was added to each well for 10 min, and then the plates were shaken to dissolve the dark blue crystal (formazan), the absorbance was detected at 570 nm using a BioTek microplate reader. The data were analyzed using SPSS 20 software.

MTH2 = target: T2, MTH2 (Homo sapiens, UniProt Q9NV35); experiment: Cellular thermal shift assay (CETSA), MTH2; type: binding; settings: MGC-803 cells, 50 µM compound, heated 10 min from 43 to 61 °C
T2 construct: endogenous in cells; host or cells: MGC-803 (human gastric cancer cell line)
Protocol: as §1

L02 cells = experiment: MTT cell viability, L02; type: cell-based; settings: Homo sapiens, normal liver cell line, 72 h
Protocol: as §3

MGC-803 cells [3] = experiment: 8-oxo-dG assay (Cy3-conjugated avidin), MGC-803; type: cell-based, human; settings: MGC-803, 5 µM, 48 h, compared with DMSO
Protocol: Intracellular 8-oxo-dG levels were measured by staining with Cy3-conjugated avidin[65]. Cells were seeded on coverslips in 24-well plates (1–1.5 × 10^4 cells/well) overnight, and then transfected with candidate compounds. After 48 h, the cells were fixed with ice-cold methanol in Tris-buffered saline (TBS) for 15 min and blocked, using TBS with 0.1% Triton X-100 and 15% fetal bovine serum for 1 h. Then, the cells were stained with Cy3-conjugated avidin (0.5 µg/mL) for 1 h at room temperature. DNA was counterstained with 4,6-diamidino-2-phenylindole(DAPI). Images were acquired in a Nikon Eclipse TE 2000-S fluorescence microscope.

MGC-803 cells [4] = experiment: Alkaline comet assay, MGC-803; type: cell-based, human; settings: MGC-803, 10 µM, 48 h, compared with DMSO
Protocol: (§4) MGC-803 and HGC-27 cells were seeded into 6-well plates(1.5 × 10^5 cells/well) and cultured overnight. For siRNA experiments, the control siRNA and MTH1 siRNA were transfected into cells. For compounds experiments, cells were treated with candidate compounds MI-743 for 48 h before collection. For the H2O2 control, cells were treated with 100 µM H2O2 for 10 min. Subsequently, cells were harvested, washed and resuspended with PBS. After counting, cells were mixed with 1.2% low melting-temperature agarose at 37 °C. The mixtures were layered onto pre-warmed glass slides, which were pre-coated with 1% agarose. After adding coverslips, slides were kept in 4 °C immediately for 10-15 min, followed by immersing in pre-chilled lysis buffer(2.5 M NaCl, 0.1 M EDTA, 10 mM Tris-HCL pH 7.7, 1% Triton X-100, 1% DMSO)for 5-8 h. Then, slides were washed three times with enzyme reaction buffer (40 mM HEPES pH 8.0, 0.1 M KCl, 0.5 mM EDTA and 0.2 mg/mL BSA) and incubated for another 45 min in pre-chilled alkaline electrophoresis buffer (50 mM NaOH, 1 mM EDTA, 1% DMSO, pH12.8). After electrophoresis for 30 min at 25 V, slides were neutralized with 0.4 M Tris-HCl pH 7.0 for 1 h and stained with 1‰ EB for 5 min. At last, images were acquired using fluorescence microscope and analysised by CometScore software.

MTH1 = MTH1 (Homo sapiens, UniProt P36639); experiment: Cellular thermal shift assay (CETSA), MTH1; type: binding; design: endogenous in cells; host or cells: MGC-803 (human gastric cancer cell line); settings: MGC-803 cells, 50 µM compound, heated 10 min from 43 to 61 °C, western blot
Protocol: as §1

HGC-27 cells = experiment: Alkaline comet assay, HGC-27; type: cell-based, human; settings: HGC-27, 10 µM, 48 h, compared with DMSO
Protocol: as §4

GES-1 cells [5] = experiment: MTT cell viability, GES-1; type: cell-based; settings: Homo sapiens, GES1, normal gastric epithelial cell line, 72 h
Protocol: as §3

SMMC-7721 cells = experiment: MTT cell viability, SMMC-7721; type: cell-based; settings: Homo sapiens, liver cancer cell line, 72 h
Protocol: as §3

B16-F10 cells = experiment: MTT cell viability, B16-F10; type: cell-based; settings: Mus musculus, 72 h
Protocol: as §3

T2 sequence (Q9NV35 whole entry): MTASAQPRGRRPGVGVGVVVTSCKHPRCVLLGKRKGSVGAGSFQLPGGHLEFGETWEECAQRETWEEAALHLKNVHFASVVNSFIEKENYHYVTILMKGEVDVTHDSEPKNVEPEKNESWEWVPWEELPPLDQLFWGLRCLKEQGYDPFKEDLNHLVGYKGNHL
T1 sequence (O15527 whole entry): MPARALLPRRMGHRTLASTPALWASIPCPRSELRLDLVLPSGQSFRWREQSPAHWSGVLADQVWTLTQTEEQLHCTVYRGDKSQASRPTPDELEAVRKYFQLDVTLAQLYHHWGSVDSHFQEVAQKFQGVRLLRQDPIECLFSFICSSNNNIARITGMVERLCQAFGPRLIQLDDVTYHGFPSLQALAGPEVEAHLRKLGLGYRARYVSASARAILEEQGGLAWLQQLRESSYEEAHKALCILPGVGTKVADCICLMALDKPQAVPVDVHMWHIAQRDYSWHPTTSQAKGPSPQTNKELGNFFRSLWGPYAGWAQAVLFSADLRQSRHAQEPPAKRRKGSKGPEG

Compound: C#CCSc1nc(NNC(N)=S)c(C#N)c(-c2ccc3oc(=O)ccc3c2)n1 [MI-743, 2-(5-cyano-6-(2-oxo-2H-chromen-6-yl)-2-(prop-2-yn-1-ylthio)pyrimidin-4-yl)hydrazine-1-carbothioamide]
- temperature at which OGG1 became unstable (OGG1): 49 °C
- colony formation (GES-1 cells [1]): no obviously inhibitory effect
- colony formation (MGC-803 cells [2]): smaller and fewer colonies
- IC50 (EC9706 cells): 8.35 ± 0.92 µM
- temperature at which MTH2 became unstable (MTH2): 49 °C
- IC50 (L02 cells): 17.3 ± 1.23 µM
- levels of 8-oxo-dG (MGC-803 cells [3]): sharply increased
- comet tail moment (MGC-803 cells [4]): significantly elevated
- incubation temperature until which MTH1 was stable (MTH1): 61 °C
- comet tail moment (HGC-27 cells): significantly elevated
- IC50 (GES-1 cells [5]): 25.5 ± 1.02 µM
- IC50 (SMMC-7721 cells): 5.39 ± 0.73 µM
- IC50 (B16-F10 cells): 8.08 ± 0.91 µM
